Test results published in patent EP0973746B1, “SUBSTITUTED 3-CYANO QUINOLINES” (Wyeth Holdings Corporation, priority 1997, dated 1998).
Values after ≈ are worked out from the molar mass of the structure shown. Values joined by “and” are separate entries in the source; they are usually repeats but may differ in a detail not shown here. Equal values may be shown once. Read-outs that look alike come from different tables or passages of the source. Each block holds one molecule with its values, some of them ahead of it.

What was measured:
[1] = biological target: T1, Kinase insert Domain containing Receptor (KDR: the catalytic domain of the VEGF receptor) (Homo sapiens, UniProt P35968); experiment: Inhibition of Kinase insert Domain containing Receptor (KDR); assay type: biochemical; conditions: pH 7.2, radioactive format; for IC50: read-out: KDR IC50 (converted);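 for all read-outs here: KDR phosphorylating a Glu:Tyr 4:1 copolymer with P32- or P33-labelled ATP, Mg++ and vanadate, read as acid-insoluble radiolabel, compared with compound-free reaction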
T1 construct: KDR: the catalytic domain of the VEGF receptor

[2] = biological target: recombinant human MEK 1 (MAPKK) and recombinant human ERK2 (MAPK); experiment: Mitogen Activated Protein Kinase (MAPK) assay, two component coupled MEK 1 / ERK2; assay type: biochemical; conditions: separate entries for the same compound = evaluated more than one time;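 note: MEK 1-activated ERK2 phosphorylates MBP or Myc peptide with 33P-ATP, filter capture and scintillation counting, inhibitor preincubated with ERK2 30 min at 0 °C, inhibition relative to uninhibited control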
[3] = biological target: T2, His-tagged cytoplasmic domain of EGFR (Homo sapiens, UniProt P00533); experiment: Inhibition of Epidermal Growth Factor Receptor Kinase (EGF-R) using recombinant enzyme; assay type: biochemical; conditions: recombinant enzyme; RR-SRC peptide; average of the number of tests; read-out: IC50;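 note: radiometric kinase assay measuring radiolabeled phosphate transfer from ATP onto the peptide tyrosine by scintillation counting, control is reaction without compound, background subtracted, IC50 from dose-response curve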
T2 construct: containing the EGFR cDNA encoding amino acids 645 - 1186 preceded by Met-Ala-(His)6; made in house; host or cells: Sf9 cells, recombinant baculovirus vHcEGFR52
Method: The enzyme used in this assay is the His-tagged cytoplasmic domain of EGFR.
Compounds to be evaluated were made into 10 mg/mL stock solutions in 100% dimethylsulfoxide (DMSO). Prior to experiment, stock solutions were diluted to 500 µM with 100% DMSO and then serially diluted to the desired concentration with HEPES buffer (30 mM HEPES pH 7.4).
For the enzyme reaction, 10 µL of each inhibitor (at various concentrations) were added to each well of a 96-well plate. […] This was allowed to sit for 10 min on ice and was followed by the addition of 5 µl peptide (80 µM final conc.), 10µl of 4X Buffer (Table A), 0.25 µL ^33P-ATP and 12 µL H2O. The reaction was allowed to run for 90 min at room temperature and was followed by spotting the entire volume on to precut P81 filter papers. The filter discs were washed 2X with 0.5% phosphoric acid and radioactivity was measured using a liquid scintillation counter.
The % inhibition of the test compound was determined for at least three different concentrations and the IC50 value was evaluated from the dose response curve. […] CPM(control) is in units of counts per minute and was a number expressing the amount of radiolabeled ATP (g-33P) incorporated into the RR-SRC peptide substrate by the enzyme after 90 minutes at room temperature in the absence of test compound as measured by liquid scintillation counting. The CPM values were corrected for the background counts produced by ATP in the absence of the enzymatic reaction. The IC50 values reported in TABLE 2 are averages of the number of tests conducted.

[4] = system: A431; experiment: Inhibition of cancer cell growth as measured by cell number, A431; assay type: cell-based, human; conditions: Homo sapiens, A-431, 48 h, Table 8;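 note: human A431 line, picked because it overexpresses epidermal growth factor receptor (EGFR)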
From the text: (§1) The cell lines were chosen since they overexpressed epidermal growth factor receptor (EGFR) (i.e. A431) or HER2/neu (SKBR3), or had little to no expression of the these receptors (SW620, LOX, MCF7).

[5] = system: SKBR3; experiment: Inhibition of cancer cell growth as measured by cell number, SKBR3; assay type: cell-based, human; conditions: Homo sapiens, Table 8;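 note: SK-BR-3 cells were selected as a line overexpressing HER2/neu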
From the text: as §1

[6] = system: MCF7; experiment: Inhibition of cancer cell growth as measured by cell number, MCF7; assay type: cell-based, human; conditions: Homo sapiens, MCF7, 48 h, Table 8;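 note: MCF7 was included as a line with little or no EGFR or HER2/neu expression, in contrast to the receptor-overexpressing lines of the panel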
From the text: as §1

[7] = system: SW620; experiment: Inhibition of cancer cell growth as measured by cell number, SW620; assay type: cell-based, human; conditions: Homo sapiens, SW-620, 48 h, Table 8;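 note: SW620 was included as a cell line with little or no EGFR or HER2/neu expression, in contrast to receptor-overexpressing lines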
From the text: as §1

[8] = system: LOX; experiment: Inhibition of cancer cell growth as measured by cell number, LOX; assay type: cell-based, human; conditions: Homo sapiens, LOX, 48 h, Table 8;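 note: LOX cells served as a line with low or absent EGFR and HER2/neu expression, in contrast to receptor-overexpressing lines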
From the text: as §1

[9] = cell number, Sulforhodamine B, 48 hours exposure, read-out: IC50 A431
[10] = SK-BR-3, cell number, Sulforhodamine B, 48 hours exposure, read-out: IC50 SKBR3
[11] = cell number, Sulforhodamine B, 48 hours exposure, read-out: IC50 MCF7
[12] = cell number, Sulforhodamine B, 48 hours exposure, read-out: IC50 SW620
[13] = cell number, Sulforhodamine B, 48 hours exposure, read-out: IC50 LOX

T2 sequence (P00533 669-1210): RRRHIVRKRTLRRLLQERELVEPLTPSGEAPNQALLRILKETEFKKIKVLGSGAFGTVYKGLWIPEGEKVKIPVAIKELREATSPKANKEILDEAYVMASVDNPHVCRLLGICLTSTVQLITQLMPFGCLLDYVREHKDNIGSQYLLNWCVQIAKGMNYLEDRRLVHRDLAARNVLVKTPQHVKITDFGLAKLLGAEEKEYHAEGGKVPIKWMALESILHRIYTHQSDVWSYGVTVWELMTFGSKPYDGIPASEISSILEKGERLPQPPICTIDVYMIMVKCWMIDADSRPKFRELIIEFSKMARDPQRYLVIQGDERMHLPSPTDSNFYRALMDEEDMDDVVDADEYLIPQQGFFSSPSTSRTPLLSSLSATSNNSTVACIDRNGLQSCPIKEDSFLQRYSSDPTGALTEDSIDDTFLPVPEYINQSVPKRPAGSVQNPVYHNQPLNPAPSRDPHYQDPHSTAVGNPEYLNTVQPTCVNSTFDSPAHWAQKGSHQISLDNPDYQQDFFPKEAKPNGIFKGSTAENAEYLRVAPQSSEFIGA
T1 sequence (P35968 834-1162 limits assumed): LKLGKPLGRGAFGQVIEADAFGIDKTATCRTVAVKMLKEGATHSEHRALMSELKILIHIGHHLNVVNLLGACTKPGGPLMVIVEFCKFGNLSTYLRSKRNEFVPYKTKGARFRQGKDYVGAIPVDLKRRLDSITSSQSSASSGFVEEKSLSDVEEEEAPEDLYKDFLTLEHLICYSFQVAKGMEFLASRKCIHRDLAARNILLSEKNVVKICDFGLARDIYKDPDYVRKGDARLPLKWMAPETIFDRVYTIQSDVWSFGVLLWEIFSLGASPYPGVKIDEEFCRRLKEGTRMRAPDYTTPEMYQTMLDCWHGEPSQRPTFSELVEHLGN

IC50 [1]: 0.286 µM
Molecule: CCOc1cc2c(Nc3ccc(C)c(O)c3)c(C#N)cnc2cc1OC [Example 97, 6-Ethoxy-4-(3-hydroxy-4-methylphenylamino)-7-methoxyquinoline-3-carbonitrile]

IC50 [2]: 25 µM | IC50 [3]: 0.1 µM | IC50 [4, 9]: 0.07 µg/mL (≈ 0.228 µM) | IC50 [5, 10]: 0.06 µg/mL (≈ 0.196 µM) | IC50 [6, 11]: 0.8 µg/mL (≈ 2.61 µM) | IC50 [7, 12]: 0.08 µg/mL (≈ 0.261 µM) | IC50 [8, 13]: 0.08 µg/mL (≈ 0.261 µM)
Molecule: CSc1cccc(Nc2c(C#N)cnc3ccc(N)cc23)c1 [Example 363, 6-Amino-4-[(3-methylsulfanylphenyl)amino]-3-quinolinecarbonitrile]

IC50 [2]: 10 µM | IC50 [1]: > 28.5 µM
Molecule: COc1cc2ncc(C#N)c(Nc3ccccc3SC)c2cc1OC [Example 250, 6,7-Dimethoxy-4-(2-methylsulfanyl-phenylamino)-quinoline-3-carbonitrile]

Molecule: COc1ccc(OC)c2c(Nc3ccc(C)c(O)c3)c(C#N)cnc12 [Example 239, 4-(3-Hydroxy-4-methyl-phenylamino)-5,8-dimethoxy-quinoline-3-carbonitrile]
IC50 [2]: > 100 µM | IC50 [1]: > 89.5 µM

Molecule: N#Cc1cnc2ccc([N+](=O)[O-])cc2c1Nc1ccc(F)c(F)c1 [Example 156, 4-[(3,4-Difluorophenyl)amino]-6-nitro-3-quinolinecarbonitrile]
IC50 [2]: > 100 µM | IC50 [3]: 0.5 µM | IC50 ([4]; read-out: IC50 A431, cell number, Sulforhodamine B, 48 hours exposure): 3.77 µg/mL (≈ 11.6 µM) | IC50 ([5]; SK-BR-3, 48 h, read-out: IC50 SKBR3, cell number, Sulforhodamine B, 48 hours exposure): 7.43 µg/mL (≈ 22.8 µM) | IC50 ([6]; read-out: IC50 MCF7, cell number, Sulforhodamine B, 48 hours exposure): 7.57 µg/mL (≈ 23.2 µM) | IC50 ([7]; read-out: IC50 SW620, cell number, Sulforhodamine B, 48 hours exposure): 7.91 µg/mL (≈ 24.2 µM) | IC50 ([8]; read-out: IC50 LOX, cell number, Sulforhodamine B, 48 hours exposure): 67 µg/mL (≈ 205 µM)

Molecule: COc1ccc(OC)c2c(Nc3cccc(Br)c3)c(C#N)cnc12 [Example 240, 4-(3-Bromo-phenylamino)-5.8-dimethoxy-quinoline-3-carbonitrile]
IC50 [2]: 10 µM | IC50 [1]: > 78.1 µM

Molecule: COc1cc2c(Nc3cc(O)c(Cl)cc3F)c(C#N)cnc2cc1OCCN(C)C [Example 86, 4-(4-Chloro-2-fluoro-5-hydroxy-phenylamino)-7-(2-dimethylamino-ethoxy)-6-methoxy-quinoline-3-carbonitrile]
IC50 [2]: 1.8 µM and 2 µM | IC50 [1]: 6.96 µM

Molecule: COc1cccc2c(Nc3ccc(Br)c(O)c3)c(C#N)cnc12 [Example 278, 4-(4-Bromo-3-hydroxy-phenylamino)-8-methoxy-quinoline-3-carbonitrile]
IC50 [2]: > 100 µM | IC50 [1]: > 81 µM

IC50 [1]: 6.34 µM
Molecule: COc1cc2c(Nc3cc(O)c(Cl)cc3F)c(C#N)cnc2cc1OCCN1CCOCC1 [Example 87, 4-(4-Chloro-2-fluoro-5-hydroxy-phenylamino)-6-methoxy-7-(2-morpholin-4-yl-ethoxy)-quinoline-3-carbonitrile]

IC50 [2]: > 100 µM | KDR IC50 [1]: >30 µg/mL
Molecule: 4-(4-Chloro-2-fluoro-phenylamino)-5,8-dimethoxy-quinoline-3-carbonitrile [Example 238]

IC50 [2]: > 100 µM | IC50 [3]: 0.00028 µM | IC50 [4, 9]: 0.05 µg/mL (≈ 0.115 µM) | IC50 [5, 10]: 0.23 µg/mL (≈ 0.528 µM) | IC50 [6, 11]: 0.36 µg/mL (≈ 0.827 µM) | IC50 [7, 12]: 0.02 µg/mL (≈ 0.0459 µM) | IC50 [8, 13]: 0.02 µg/mL (≈ 0.0459 µM)
Molecule: COCC#CC(=O)Nc1ccc2ncc(C#N)c(Nc3cccc(Br)c3)c2c1 [Example 330, N-[4-[(3-Bromophenyl)amino]-3-cyano-6-quinoliny]-4-methoxy-2-butynamide]

Molecule: COc1ccc(Nc2c(C#N)cnc3c(OC)cccc23)cc1O [Example 279, 4-(3-Hydroxy-4-methoxy-phenylamino)-8-methoxy-quinoline-3-carbonitrile]
IC50 [2]: > 100 µM | IC50 [1]: > 93.4 µM

IC50 [2]: 18 µM | IC50 [3]: 0.1 µM | IC50 [4, 9]: 0.5 µg/mL (≈ 1.11 µM) | IC50 [5, 10]: 0.7 µg/mL (≈ 1.55 µM) | IC50 [6, 11]: 7.8 µg/mL (≈ 17.3 µM) | IC50 [7, 12]: 4.1 µg/mL (≈ 9.1 µM) | IC50 [8, 13]: 2.5 µg/mL (≈ 5.55 µM)
Molecule: N#Cc1cnc2ccc(NCCCN3CCCC3)cc2c1Nc1cccc(Br)c1 [Example 358, 4-(3-Bromo-phenylamino)-6-(3-pyrrolidin-1-yl-propylamino)-quinoline-3-carbonitrile]

Molecule: COc1ccc(OC)c2c(Nc3cc(O)c(Cl)cc3F)c(C#N)cnc12 [Example 243, 4-(4-Chloro-2-fluoro-5-hydroxy-phenylamino)-5,8-dimethoxy-quinoline-3-carbonitrile]
IC50 [2]: > 100 µM | IC50 [1]: > 80.3 µM

Molecule: COc1ccc(OC)c2c(Nc3cccc(N(C)C)c3)c(C#N)cnc12 [Example 242, 4-(3-Dimethylamino-phenylamino)-5,8-dimethoxy-quinoline-3-carbonitrile]
IC50 [2]: 10 µM | IC50 [1]: > 86.1 µM
